# Reference: patent US20260356860A1, “2-SUBSTITUTED 3,4A,5,7,8,8A-HEXAHYDRO-4H-THIOPYRANO[4,3-DJPYRIMIDIN-4-ONES FOR WOUND TREATMENT” (priority 2022, published 2026)
# What was measured:
# [1] = test system: E. coli (derived from ATCC ® 8739 ™); test: Bacteriostasis, log reduction; assay type: cell-based; details: E. coli ATCC 8739
# Description: (§1) In order to assess the log reduction capabilities of compounds of Formula (1), testing was performed on organisms that are found in acute and chronic wounds. Triplicate tubes were prepared for each bacteria using 50 μL of inoculum (about 1×10^6 CFU/mL) which was added to 450 μL of compound solution (compound of Formula (I)) (or 100 μL of inoculum in 900 μL of compound solution), resulting in a final inoculum of about 1×10^5 CFU/mL, as shown in Table 4.
# (§2) Tubes were mixed with a vortex and then incubated in a shaking incubator at 175 RPM and 35° C. to 37° C.
# (§3) Positive control in Tables 5a and 5b was 1 mL of 0.89% saline with 1 mL of the 1×10^6 CFU/mL of the organism.
# (§4) For Compounds 1, 7, 8, 10, and 18 in Tables 6, 7-A, 7-B, 8, 9, 10-A, 10-B, and 11: The compound solutions were prepared with compound (30 mg), polysorbate 20 (1.6 mL), butylene glycol (1.6 mL), phosphatidyl choline (0.66 g), ethanol (1.6 mL), hydroxypropyl cellulose (0.26 g), and ultra pure water (24.9 mL).
# (§5) XAV939 Control in Table X1 was XAV939 (30 mg), polysorbate 20 (1.6 mL), butylene glycol (1.6 mL), phosphatidyl choline (0.66 g), ethanol (1.6 mL), ultra pure water (24.9 mL), and hydroxypropyl cellulose (0.26 g).
# (§6) GO-HA Control in Table X2 was GO-HA (30 mg), polysorbate 20 (1.6 mL), butylene glycol (1.6 mL), phosphatidyl choline (0.66 g), ethanol (1.6 mL), ultra pure water (24.9 mL), and hydroxypropyl cellulose (0.26 g).
# (§7) For Compound 18+GO-HA in Tables 6 and X4: compound 18 (45 mg), GO-HA (45 mg), polysorbate 20 (2 mL), butylene glycol (2 mL), phosphotidyl choline (0.5 g), ethanol (2 mL), hydroxypropyl cellulose (0.40 g), and ultra pure water (40 mL).
# (§8) For XAV939+GO-HA in Tables 6 and X3-A, and X3-B: XAV939 (45 mg), GO-HA (45 mg), butylene glycol (2 mL), polysorbate 20 (2 mL), phosphotidyl choline (0.5 g), ethanol (2 mL), hydroxypropyl cellulose (0.40 g), and ultra pure water (40 mL).
# (§9) Testing was performed at two time points: 18 to 24 hours, and […].
# [2] = test system: S. pyogenes (derived from ATCC ® 19615 ™); test: Bacteriostasis, log reduction; assay type: cell-based; details: S. pyogenes ATCC 19615
# Description: as §1, §2, §3, §4, §5, §6, §7, §8, §9
# [3] = test system: P. vulgaris (derived from ATCC ® 8427 ™); test: Bacteriostasis, log reduction; assay type: cell-based; details: P. vulgaris ATCC 8427
# Description: as §1, §2, §3, §4, §5, §6, §7, §8, §9
# [4] = test system: E. coli (derived from ATCC ® 25922 ™); test: Bacteriostasis, log reduction; assay type: cell-based; details: E. coli ATCC 25922
# Description: as §1, §2, §3, §4, §5, §6, §7, §8, §9
# [5] = test system: S. epidermidis (derived from ATCC ® 14990 ™); test: Bacteriostasis, log reduction; assay type: cell-based; details: S. epidermidis ATCC 14990
# Description: as §1, §2, §3, §4, §5, §6, §7, §8, §9
# [6] = test system: S. maltophilia (derived from ATCC ® 13637 ™); test: Bacteriostasis, log reduction; assay type: cell-based; details: S. maltophilia ATCC 13637
# Description: as §1, §2, §3, §4, §5, §6, §7, §8, §9
# [7] = test system: P. aeruginosa (derived from ATCC ® 15442 ™); test: Bacteriostasis, log reduction; assay type: cell-based; details: P. aeruginosa ATCC 15442
# Description: as §1, §2, §3, §4, §5, §6, §7, §8, §9
# [8] = test system: A. baumannii (derived from ATCC ® 19606 ™); test: Bacteriostasis, log reduction; assay type: cell-based; details: A. baumannii ATCC 19606
# Description: as §1, §2, §3, §4, §5, §6, §7, §8, §9
# [9] = test system: S. aureus (derived from ATCC ® 6538 ™); test: Bacteriostasis, log reduction; assay type: cell-based; details: S. aureus ATCC 6538
# Description: as §1, §2, §3, §4, §5, §6, §7, §8, §9
# [10] = test system: new porcine skin; test: Energy peak of healed wound; assay type: in vivo; details: topical, day 21
# Description: Additional tests were performed including elasticity (Table 12); max force (Table 13); tensile strength (strain) (Table 14); energy peak (Table 15); rete-ridge formation; and collagen organization (plane polarized light) (FIG. 24) of the healed wound sites, described as follows.
# A is saline (control), B is serum formulation (vehicle), C is GO-HA (vehicle), D is Compound 1; E is Compound 1+GO-HA; F is Compound 8; G is Compound 8+GO-HA; H is Compound 10; and J is Compound 10+GO-HA.
# Energy Peak (N*mm) is the maximum force applied to a material over time. All compounds of Formula (I) tested with or without GO-HA ranged from 5% to 41% improvement in energy peak compared to the saline control. […] The vehicle, GO-HA, provided a 61% improvement in energy peak over the saline control.
smiles,measurement,setting,value
"O=c1[nH]c(-c2ccc(B(O)O)cc2)nc2c1CSCC2 [Compound 1, (4-(4-oxo-3,5,7,8-tetrahydro-4H-thiopyrano[4,3-d]pyrimidin-2-yl)phenyl)boronic acid]",Average result,[1]; 24 h,1.3 × 10^4
same,Log Reduction,[1]; 24 h,1.2
same,Log Value,[1]; 24 h,4.1
same,Average result,[1]; 72 h,<200
same,Log Reduction,[1]; 72 h,>3.0
same,Log Value,[1]; 72 h,<2.3
same,Average result,[2]; 24 h,<200
same,Log Reduction,[2]; 24 h,>3.2
same,Log Value,[2]; 24 h,<2.3
same,Average result,[2]; 72 h,<200
same,Log Reduction,[2]; 72 h,>3.2
same,Log Value,[2]; 72 h,<2.3
same,Average result,[3]; 24 h,<200
same,Log Reduction,[3]; 24 h,>3.6
same,Log Value,[3]; 24 h,<2.3
same,Average result,[3]; 72 h,<200
same,Log Reduction,[3]; 72 h,>3.6
same,Log Value,[3]; 72 h,<2.3
same,Average result,[4]; 24 h,<200
same,Log Reduction,[4]; 24 h,>3.1
same,Log Value,[4]; 24 h,<2.3
same,Average result,[4]; 72 h,<200
same,Log Reduction,[4]; 72 h,>3.1
same,Log Value,[4]; 72 h,<2.3
same,Average result,[5]; 24 h,3.1 × 10^5
same,Log Reduction,[5]; 24 h,No
same,Log Value,[5]; 24 h,5.5
same,Average result,[5]; 72 h,<200
same,Log Reduction,[5]; 72 h,>2.5
same,Log Value,[5]; 72 h,<2.3
same,Average result,[6]; 24 h,<200
same,Log Reduction,[6]; 24 h,>2.8
same,Log Value,[6]; 24 h,<2.3
same,Average result,[6]; 72 h,<200
same,Log Reduction,[6]; 72 h,>2.8
same,Log Value,[6]; 72 h,<2.3
same,Average result,[7]; 24 h,<200
same,Log Reduction,[7]; 24 h,>3.1
same,Log Value,[7]; 24 h,<2.3
same,Average result,[7]; 72 h,<200
same,Log Reduction,[7]; 72 h,>3.1
same,Log Value,[7]; 72 h,<2.3
same,Average result,[8]; 24 h,<200
same,Log Reduction,[8]; 24 h,>3.0
same,Log Value,[8]; 24 h,<2.3
same,Average result,[8]; 72 h,<200
same,Log Reduction,[8]; 72 h,>3.0
same,Log Value,[8]; 72 h,<2.3
same,Average result,[9]; 24 h,8.7 × 10^4
same,Log Reduction,[9]; 24 h,0.4
same,Log Value,[9]; 24 h,4.9
same,Average result,[9]; 72 h,<800
same,Log Reduction,[9]; 72 h,>2.4
same,Log Value,[9]; 72 h,<2.9
same,Energy Peak,[10]; individual value 1,3084.657 N*mm
same,Energy Peak,[10]; individual value 2,2356.435 N*mm
same,Energy Peak,[10]; individual value 3,1240.242 N*mm
same,Energy Peak,[10]; individual value 4,1885.046 N*mm
same,"Energy Peak, Mean",[10]; mean,2141.595 N*mm
